We go through nine substances from patent US20230113747A1, “IMMUNOGENIC PEPTIDES WITH AN OXIDOREDUCTASE MOTIF COMPRISING A MODIFIED CYSTEINE” (priority 2019, published 2023).

This assay concerns two peptides with a FITC label covalently attached to each other via a disulfide bridge. The experiment in a line: Reductase activity of the peptides, fluorescent assay (Tomazzolli et al.). Format: biochemical.
The mark [1] stands for this setting: compared with the control peptide without modified cysteine, DTT = 100% reducing activity, water = 0%.

Like-named read-outs stand apart in the source and are kept apart here. Ends that are not written are not given here.

Regarding “GWYRSPFSRVVHLYRCPYC-NH-methyl (GWYRSPFSRVVHLYRCPYC-NHMe; cysteine pairing not given here) [Peptide 29]”, the oxidoreductase activity entry under setting [1] is reported as “slightly higher oxidoreductase activity than the control peptide”.
On the same count and under the same terms, the same measure for “N-methyl C-PYC GW YRSPFSRVV HLYR —NH2 [Peptide 23]”: “equivalent activity as compared to the control peptide”; for “N-acetyl C-HGC GW YRSPFSRVV HLYR —NH2 [Peptide 27]”: “higher activity than the control peptide”.
The same measure, in the same setting: the same measure for “N-Acetyl-CPYCSLQPLALEGSLQKRG (Ac-CPYCSLQPLALEGSLQKRG; not fully specified (C-terminus); printed as N-Acetyl-CPYCSLQPLALEGSLQKRG; cysteine pairing not given here) [Peptide 2]”: “higher oxidoreductase activity than the control peptide”.
The same measure, in the same setting: the same measure for “GW YRSPFSRVV HLYR CPY-C—NH-ethyl (GWYRSPFSRVVHLYRCPYC-NHEt; cysteine pairing not given here) [Peptide 30]”: “slightly higher oxidoreductase activity than the control peptide”; for “N-ethyl C-PYC GW YRSPFSRVV HLYR —NH2 [Peptide 24]”: “no oxidoreductase activity”.
Regarding “N-acetyl C-PYC GW YRSPFSRVV HLYR —NH2 [Peptide 22]”, the oxidoreductase activity result under setting [1] was “higher oxidoreductase activity than the control peptide”.
As for “N-Acetyl-CPYCVQYIKANSKFIGITEL [Peptide 7]”, the oxidoreductase activity entry is “higher oxidoreductase activity than the control peptide”.
For the substance “N-propionyl C-PYC GW YRSPFSRVV HLYR —NH2 [Peptide 25]”, the oxidoreductase activity result under setting [1] is “higher oxidoreductase activity than the control peptide”.
